Reference: PubChem BioAssay AID248 (DTP/NCI, 2004)
Toxic doses and inconclusive results are not listed. Rule as the data show it: active = T/C of 150% or more; inactive = T/C below 125%.

Tested on: L1210 leukemia ip in BDF1 mice, survival T/C
Assay: NCI In Vivo Anticancer Drug Screen. Data for tumor model L1210 Leukemia (intraperitoneal) in B6D2F1 (BDF1) mice
Conditions: endpoint: mean survival time, higher = longer survival
How it was run: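 Ratio derived from survival: compound-dosed mice over vehicle-dosed mice, all bearing a transplantable tumor.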

[1] = dose: 100.0 mg/kg/injection, schedule: Q04DX002 (ip), vehicle: Klucel (hydroxypropylcellulose) (HPC)
[2] = dose: 200.0 mg/kg/injection, schedule: Q04DX002 (ip), vehicle: Klucel (hydroxypropylcellulose) (HPC)

Measured: T/C

CO[C@H]1/C=C/O[C@@]2(C)Oc3c(C)c(O)c4c(O)c(c(/C=N/N5CCNCC5)c(O)c4c3C2=O)NC(=O)/C(C)=C\C=C\[C@H](C)[C@H](O)[C@@H](C)[C@@H](O)[C@@H](C)C(OC(C)=O)[C@@H]1C (some centres not stated)
inactive: dose: 25.0 mg/kg/injection, schedule: Q01DX001 (ip), vehicle: water 98 % of control | dose: 25.0 mg/kg/injection, schedule: Q01DX009 (ip), vehicle: Klucel (hydroxypropylcellulose) (HPC) 100 % of control | dose: 50.0 mg/kg/injection, schedule: Q01DX001 (ip), vehicle: water 102 % of control | dose: 50.0 mg/kg/injection, schedule: Q01DX009 (ip), vehicle: Klucel (hydroxypropylcellulose) (HPC) 94 % of control | dose: 100.0 mg/kg/injection, schedule: Q01DX001 (ip), vehicle: water 101 % of control | dose: 100.0 mg/kg/injection, schedule: Q01DX009 (ip), vehicle: Klucel (hydroxypropylcellulose) (HPC) 94 % of control | dose: 200.0 mg/kg/injection, schedule: Q01DX001 (ip), vehicle: water 106 % of control | dose: 200.0 mg/kg/injection, schedule: Q01DX009 (ip), vehicle: Klucel (hydroxypropylcellulose) (HPC) 100 % of control | dose: 400.0 mg/kg/injection, schedule: Q01DX001 (ip), vehicle: water 102 % of control

CCOC(=O)C(=CNc1cc(NC(C)=O)nc(SC)n1)C(=O)OCC
inactive: [1] 96 % of control | [2] 103 % of control | dose: 400.0 mg/kg/injection, schedule: Q04DX002 (ip), vehicle: Klucel (hydroxypropylcellulose) (HPC) 96 % of control

Cc1nsc(N)n1
inactive: dose: 12.5 mg/kg/injection, schedule: Q01DX009 (ip), vehicle: saline 108 % of control | dose: 25.0 mg/kg/injection, schedule: Q01DX009 (ip), vehicle: saline 105 % of control | dose: 50.0 mg/kg/injection, schedule: Q01DX009 (ip), vehicle: saline 100 % of control | dose: 100.0 mg/kg/injection, schedule: Q01DX001 (ip), vehicle: saline 92 % of control | dose: 100.0 mg/kg/injection, schedule: Q04DX003 (ip), vehicle: Klucel (hydroxypropylcellulose) (HPC) 102 % of control | dose: 200.0 mg/kg/injection, schedule: Q01DX001 (ip), vehicle: saline 100 % of control | dose: 200.0 mg/kg/injection, schedule: Q04DX003 (ip), vehicle: Klucel (hydroxypropylcellulose) (HPC) 113 % of control | dose: 400.0 mg/kg/injection, schedule: Q01DX001 (ip), vehicle: saline 101 % of control | dose: 400.0 mg/kg/injection, schedule: Q04DX003 (ip), vehicle: Klucel (hydroxypropylcellulose) (HPC) 104 % of control

O=CN/N=C/c1cccc([N+](=O)[O-])c1
inactive: dose: 75.0 mg/kg/injection, schedule: Q01DX001 (ip), vehicle: saline 95 % of control | dose: 150.0 mg/kg/injection, schedule: Q01DX001 (ip), vehicle: saline 95 % of control | dose: 300.0 mg/kg/injection, schedule: Q01DX001 (ip), vehicle: saline 92 % of control

Cc1cccc(CCc2ccc(Br)c(C)c2C)c1C
inactive: dose: 100.0 mg/kg/injection, schedule: Q01DX001 (ip), vehicle: carboxymethylcellulose (CMC) 100 % of control | dose: 200.0 mg/kg/injection, schedule: Q01DX001 (ip), vehicle: carboxymethylcellulose (CMC) 103 % of control | dose: 400.0 mg/kg/injection, schedule: Q01DX001 (ip), vehicle: carboxymethylcellulose (CMC) 94 % of control

COC(=O)c1cc(C2OCC3OC(C)(C)OC32)[nH]n1 (configuration not stated)
inactive: dose: 100.0 mg/kg/injection, schedule: Q01DX005 (ip), vehicle: saline 96 % of control | dose: 200.0 mg/kg/injection, schedule: Q01DX005 (ip), vehicle: saline 100 % of control

CC1(C)CN1P(=O)(Oc1ccc([N+](=O)[O-])cc1)N1CC1(C)C (configuration not stated)
inactive: [1] 110 % of control | [2] 108 % of control

Cc1cccc(C)c1NC(=O)Oc1cccc2ccccc12
inactive: dose: 100.0 mg/kg/injection, schedule: Q01DX009 (ip), vehicle: saline 97 % of control | dose: 100.0 mg/kg/injection, schedule: Q04DX003 (ip), vehicle: saline 93 % of control | dose: 200.0 mg/kg/injection, schedule: Q01DX009 (ip), vehicle: saline 95 % of control | dose: 200.0 mg/kg/injection, schedule: Q04DX003 (ip), vehicle: saline 98 % of control | dose: 400.0 mg/kg/injection, schedule: Q01DX009 (ip), vehicle: saline 103 % of control | dose: 400.0 mg/kg/injection, schedule: Q04DX003 (ip), vehicle: saline 100 % of control
